Legend:
Experiment in all cases: in vitro antibacterial evaluation, MIC by broth dilution
Assay type in all cases: cell-based
Enterococcus sp. = conditions: broth dilution, 18 hours at 35° C.
Method: (§1) Methods for in vitro Antibacterial Evaluation (Table 1)
(§2) The minimum inhibitory concentration (MIC), the lowest concentration of the antibiotic which inhibits growth of the test organism, is determined by the broth dilution method using Muller-Hinton II […] (Baltimore Biological Laboratories) following the recommendations of the National Committee for Clinical Laboratory Standards [Methods for dilution antimicrobial susceptibility tests for bacteria that grow aerobically, approved standard M7-A2, National Committee for Clinical Laboratory Standards, Villanova, Pa.].
(§3) An inoculum level of 5×10^5 CFU/mL, and a range of antibiotic concentrations (64-0.06 μg/mL) is used. […] The test organisms include a spectrum of Gram-positive bacteria comprised of Staphylococcus sp., Streptococcus sp. and Enterococcus sp. These organisms include recent clinical isolates that are resistant to methicillin, penicillin and/or vancomycin.

Staphylococcus sp. = conditions: broth dilution, 18 hours at 35° C.; for MIC Staphylococcus aureus (GC 1131): strain GC 1131
Method: as §1, §2, §3

Streptococcus sp. = conditions: broth dilution, 18 hours at 35° C.
Method: as §1, §2, §3

Escherichia coli = conditions: 18 hours at 35° C.

CC(c1ccccc1)C1NC(=O)CNC(=O)C(CO)NC(=O)C(CC2CNC(=N)N2C2OC(CO)C(O)C(O)C2O)NC(=O)C(CC2CNC(=N)N2)NC(=O)C(Cc2ccc(OC3OC(CO)C(OC4OC5COC(c6ccc(OCc7ccccc7)cc6)OC5C(O)C4O)C(O)C3O)cc2)NC1=O (centres unmarked) [Example 191]
8 µg/mL: MIC Enterococcus faecalis (GC 2242) (Enterococcus sp.) | MIC Enterococcus faecalis (GC 2691) (Enterococcus sp.) | MIC Enterococcus faecalis (GC 3059) (Enterococcus sp.) | MIC Enterococcus faecalis (GC 4553) (Enterococcus sp.) | MIC Enterococcus faecalis (GC 6189) (Enterococcus sp.) | MIC Enterococcus faecium (GC 2243) (Enterococcus sp.) | MIC Enterococcus faecium (GC 4556) (Enterococcus sp.) | MIC Enterococcus faecalis (GC 2242) (Enterococcus sp.; inoculum 5×10^5 CFU/mL, strain GC 2242) | MIC Enterococcus faecium (GC 2243) (Enterococcus sp.; inoculum 5×10^5 CFU/mL, strain GC 2243) | MIC Enterococcus faecalis (GC 2691) (Enterococcus sp.; inoculum 5×10^5 CFU/mL, strain GC 2691) | MIC Enterococcus faecalis (GC 3059) (Enterococcus sp.; inoculum 5×10^5 CFU/mL, strain GC 3059) | MIC Enterococcus faecalis (GC 4553) (Enterococcus sp.; inoculum 5×10^5 CFU/mL, strain GC 4553) | MIC Enterococcus faecium (GC 4556) (Enterococcus sp.; inoculum 5×10^5 CFU/mL, strain GC 4556) | MIC Enterococcus faecalis (GC 6189) (Enterococcus sp.; inoculum 5×10^5 CFU/mL, strain GC 6189) | MIC Staphylococcus aureus (GC 1131) (Staphylococcus sp.; inoculum 5×10^5 CFU/mL) | MIC Staphylococcus aureus (GC 1131) (Staphylococcus sp.) | MIC Staphylococcus aureus (GC 3051) (Staphylococcus sp.; strain GC 3051) | MIC Staphylococcus aureus (GC 3053) (Staphylococcus sp.; strain GC 3053) | MIC Staphylococcus aureus (GC 4544) (Staphylococcus sp.; strain GC 4544) | MIC Coagulase Negative Staphylococcus (GC 4547) (Staphylococcus sp.; strain GC 4547) | MIC Escherichia coli (GC 4560) (Escherichia coli)
4 µg/mL: MIC Enterococcus avium (GC 4558) (Enterococcus sp.) | MIC Enterococcus faecium (GC 4557) (Enterococcus sp.) | MIC Enterococcus faecium (GC 4557) (Enterococcus sp.; inoculum 5×10^5 CFU/mL, strain GC 4557) | MIC Enterococcus avium (GC 4558) (Enterococcus sp.; inoculum 5×10^5 CFU/mL, strain GC 4558) | MIC Staphylococcus aureus (ATCC 29213) (Staphylococcus sp.; strain ATCC 29213) | MIC Staphylococcus aureus (GC 4541) (Staphylococcus sp.; strain GC 4541) | MIC Staphylococcus aureus (GC 4542) (Staphylococcus sp.; strain GC 4542) | MIC Staphylococcus aureus-SMITH (GC 4543) (Staphylococcus sp.; strain GC 4543) | MIC Staphylococcus aureus (GC 4545) (Staphylococcus sp.; strain GC 4545) | MIC Staphylococcus haemolyticus (GC 4546) (Staphylococcus sp.; strain GC 4546) | MIC Coagulase Negative Staphylococcus (GC 4548) (Staphylococcus sp.; strain GC 4548) | MIC Coagulase Negative Staphylococcus (GC 4549) (Staphylococcus sp.; strain GC 4549) | MIC Coagulase Negative Staphylococcus (GC 4551) (Staphylococcus sp.; strain GC 4551) | MIC Coagulase Negative Staphylococcus (GC 6257) (Staphylococcus sp.; strain GC 6257)
1 µg/mL: MIC Streptococcus pneumoniae (ATCC 6301) (Streptococcus sp.) | MIC Streptococcus pneumoniae (ATCC 6301) (Streptococcus sp.; inoculum 5×10^5 CFU/mL, strain ATCC 6301)
2 µg/mL: MIC Streptococcus agalactiae (GC 4564) (Streptococcus sp.) | MIC Streptococcus pneumoniae (GC 4565) (Streptococcus sp.) | MIC Streptococcus pyogenes (GC 4563) (Streptococcus sp.) | MIC Streptococcus pyogenes (GC 4563) (Streptococcus sp.; inoculum 5×10^5 CFU/mL, strain GC 4563) | MIC Streptococcus agalactiae (GC 4564) (Streptococcus sp.; inoculum 5×10^5 CFU/mL, strain GC 4564) | MIC Streptococcus pneumoniae (GC 4565) (Streptococcus sp.; inoculum 5×10^5 CFU/mL, strain GC 4565)
>64 µg/mL: MIC Escherichia coli (ATCC 25922) (Escherichia coli)
0.25 µg/mL: MIC Streptococcus pneumoniae (GC 1894) (Streptococcus sp.) | MIC Streptococcus pneumoniae (GC 1894) (Streptococcus sp.; inoculum 5×10^5 CFU/mL, strain GC 1894)
16 µg/mL: MIC Enterococcus faecalis (ATCC 29212) (Enterococcus sp.) | MIC Enterococcus faecalis (GC 4552) (Enterococcus sp.) | MIC Enterococcus faecalis (GC 4554) (Enterococcus sp.) | MIC Enterococcus faecalis (ATCC 29212) (Enterococcus sp.; inoculum 5×10^5 CFU/mL, strain ATCC 29212) | MIC Enterococcus faecalis (GC 4552) (Enterococcus sp.; inoculum 5×10^5 CFU/mL, strain GC 4552) | MIC Enterococcus faecalis (GC 4554) (Enterococcus sp.; inoculum 5×10^5 CFU/mL, strain GC 4554)
64 µg/mL: MIC Escherichia coli (GC 4559) (Escherichia coli)
